Results: BindingDB's records for patent US9834551 (Arrien Pharmaceuticals, 2017)
pIC50: −log10 of the molar value.

Target: T1, Tyrosine-protein kinase JAK3 (Homo sapiens, UniProt P52333)
T1 sequence (P52333 whole entry): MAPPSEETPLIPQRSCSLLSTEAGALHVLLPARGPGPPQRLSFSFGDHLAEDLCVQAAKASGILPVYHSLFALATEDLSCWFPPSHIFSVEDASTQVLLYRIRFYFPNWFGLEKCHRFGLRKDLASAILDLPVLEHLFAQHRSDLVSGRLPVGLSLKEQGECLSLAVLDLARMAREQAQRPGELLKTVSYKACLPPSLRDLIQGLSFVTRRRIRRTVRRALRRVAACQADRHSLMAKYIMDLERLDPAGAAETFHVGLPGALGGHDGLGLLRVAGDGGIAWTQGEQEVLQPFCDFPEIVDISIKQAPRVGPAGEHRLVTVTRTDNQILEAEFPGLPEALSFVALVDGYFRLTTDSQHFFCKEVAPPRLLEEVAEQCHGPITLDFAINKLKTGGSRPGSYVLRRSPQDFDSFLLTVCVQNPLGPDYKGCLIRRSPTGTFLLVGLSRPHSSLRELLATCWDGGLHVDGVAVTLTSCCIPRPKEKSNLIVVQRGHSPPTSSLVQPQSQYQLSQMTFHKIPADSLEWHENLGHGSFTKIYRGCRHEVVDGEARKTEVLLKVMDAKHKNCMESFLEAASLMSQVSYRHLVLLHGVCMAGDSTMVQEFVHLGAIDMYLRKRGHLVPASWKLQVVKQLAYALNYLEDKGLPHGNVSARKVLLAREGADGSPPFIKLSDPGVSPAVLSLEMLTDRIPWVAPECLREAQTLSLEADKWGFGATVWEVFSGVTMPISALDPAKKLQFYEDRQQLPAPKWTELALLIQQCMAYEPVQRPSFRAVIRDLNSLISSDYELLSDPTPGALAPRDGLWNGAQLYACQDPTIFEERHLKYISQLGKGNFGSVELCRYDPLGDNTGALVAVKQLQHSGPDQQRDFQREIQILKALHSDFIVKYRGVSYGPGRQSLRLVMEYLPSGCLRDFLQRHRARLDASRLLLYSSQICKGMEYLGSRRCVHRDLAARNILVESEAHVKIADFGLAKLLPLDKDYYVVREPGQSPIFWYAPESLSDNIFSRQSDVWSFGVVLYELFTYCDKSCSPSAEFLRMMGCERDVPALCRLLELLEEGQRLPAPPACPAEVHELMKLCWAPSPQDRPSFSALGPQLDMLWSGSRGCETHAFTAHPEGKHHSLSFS
Assay: In Vitro Inhibition Assay
Protocol: All additions were done on ice, followed by the addition of ATP mix. Wells were uniformly mixed using an Eppendorff plate shaker and incubated at 30° C. for 20 min, and stopped by the addition of 5 μL of 3% phosphoric acid. Volume was increased to 100 μL by adding 0.8% phosphoric acid which was then transferred to PC filter mats (Millipore), pre-equilibrated with 70% ethanol and water. Plates were washed thrice with 100 μL 0.8% phosphoric acid and dried for an hour at 60° C. 100 μL scintillation fluid was added into each well and reading taken in Perkin Elmer TOPCOUNT beta counter.

Row | SMILES | pIC50
1 | C=CC(=O)Nc1cccc(-c2cnc3[nH]cc(-c4cccc(S(=O)(=O)N(CC)CC)c4)c3c2)c1 [US9834551, Example 28] | > 7.00
2 | C=CC(=O)Nc1cccc(-c2cnc3[nH]cc(-c4cccc(C)c4F)c3c2)c1 [US9834551, Example 148] | > 7.00
